The source made the active and inactive calls. No cut-off for these calls is given here.
Key:
Candida albicans = experiment: Antifungal activity against Candida albicans ATCC 14053 at 200 ug/disk by standard disk assay; format: functional, organism-based
Staphylococcus aureus = experiment: Antibacterial activity against Staphylococcus aureus ATCC 29213 at 200 ug/disk by standard disk assay; format: functional
Bacillus subtilis = experiment: Antibacterial activity against Bacillus subtilis ATCC 6051 at 200 ug/disk by standard disk assay; format: functional; conditions: for zone of inhibition at 200 µg/disc: read-out: IZ

| Structure (SMILES) | Activity (Candida albicans) | Activity (Staphylococcus aureus) | Activity (Bacillus subtilis) | zone of inhibition at 200 µg/disc (Staphylococcus aureus; read-out: IZ) [mm] | zone of inhibition at 200 µg/disc (Bacillus subtilis) [mm] |
| --- | --- | --- | --- | --- | --- |
| C=C1CC[C@H]2C[C@@H]1[C@]2(CO)C[C@H](O)/C=C(\C)C(=O)O | inactive | inactive | inactive |  |  |
| C=C1CC[C@H]2C[C@@H]1[C@@]21CO[C@]2(C=C(C)C(=O)O2)[C@H]1O [MASSARINOLIN A] | inactive |  |  | 10 | 17 |
| C/C(=C\[C@@H](O)C[C@@]12CO[C@]3(C)CC[C@H]1C[C@H]23)C(=O)O [MASSARINOLIN B] | inactive |  |  |  | 8 |

From ChEMBL document CHEMBL1141816, “Massarinolins A-C: new bioactive sesquiterpenoids from the aquatic fungus massarina tunicata” (1999)
